Consider 24 molecules from patent US11578061B2, “Inhibitors of LRRK2 kinase” (Halia Therapeutics, Inc., priority 2021, dated 2023).

recombinant human LRRK2 (catalytic domain only [amino acids 970-2527], GST-tagged), sequence (Q5S007 970-2527): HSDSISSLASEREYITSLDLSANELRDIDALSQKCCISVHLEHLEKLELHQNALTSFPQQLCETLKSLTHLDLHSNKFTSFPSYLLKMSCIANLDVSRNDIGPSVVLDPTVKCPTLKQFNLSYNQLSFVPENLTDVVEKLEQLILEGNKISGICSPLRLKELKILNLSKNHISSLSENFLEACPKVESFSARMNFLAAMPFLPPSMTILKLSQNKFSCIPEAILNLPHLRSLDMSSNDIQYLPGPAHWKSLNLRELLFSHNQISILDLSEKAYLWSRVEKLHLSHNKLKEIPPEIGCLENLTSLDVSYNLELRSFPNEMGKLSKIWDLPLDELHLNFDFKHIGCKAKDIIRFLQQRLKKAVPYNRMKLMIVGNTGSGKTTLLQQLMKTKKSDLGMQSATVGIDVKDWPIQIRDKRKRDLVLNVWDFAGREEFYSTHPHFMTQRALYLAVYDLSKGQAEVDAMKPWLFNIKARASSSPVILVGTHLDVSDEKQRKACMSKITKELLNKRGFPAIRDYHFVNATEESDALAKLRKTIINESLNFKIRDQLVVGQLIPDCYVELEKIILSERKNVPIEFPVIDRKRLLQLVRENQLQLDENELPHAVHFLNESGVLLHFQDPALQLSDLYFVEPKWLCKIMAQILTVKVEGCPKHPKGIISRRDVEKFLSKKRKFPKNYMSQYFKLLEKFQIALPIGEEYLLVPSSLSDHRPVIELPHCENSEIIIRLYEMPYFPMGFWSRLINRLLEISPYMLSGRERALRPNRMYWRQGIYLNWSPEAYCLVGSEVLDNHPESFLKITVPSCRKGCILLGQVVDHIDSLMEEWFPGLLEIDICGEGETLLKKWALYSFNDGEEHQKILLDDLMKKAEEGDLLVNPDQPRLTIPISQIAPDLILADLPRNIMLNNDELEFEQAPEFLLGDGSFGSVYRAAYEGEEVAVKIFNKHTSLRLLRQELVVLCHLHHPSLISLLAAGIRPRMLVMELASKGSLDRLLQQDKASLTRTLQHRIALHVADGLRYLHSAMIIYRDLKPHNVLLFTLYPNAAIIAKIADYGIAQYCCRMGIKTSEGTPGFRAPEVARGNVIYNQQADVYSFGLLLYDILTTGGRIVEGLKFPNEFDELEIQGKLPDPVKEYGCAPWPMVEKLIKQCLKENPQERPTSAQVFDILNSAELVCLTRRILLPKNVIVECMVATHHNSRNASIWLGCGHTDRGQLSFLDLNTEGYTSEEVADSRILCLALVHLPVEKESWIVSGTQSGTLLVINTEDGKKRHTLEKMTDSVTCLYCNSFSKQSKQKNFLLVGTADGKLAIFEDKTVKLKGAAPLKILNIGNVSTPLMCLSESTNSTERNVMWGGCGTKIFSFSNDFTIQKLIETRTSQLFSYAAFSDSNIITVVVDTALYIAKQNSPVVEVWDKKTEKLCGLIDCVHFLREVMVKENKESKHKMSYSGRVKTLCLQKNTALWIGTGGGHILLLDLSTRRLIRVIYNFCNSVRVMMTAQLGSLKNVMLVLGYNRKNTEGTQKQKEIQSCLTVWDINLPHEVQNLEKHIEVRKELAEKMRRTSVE

This experiment has as its target recombinant human LRRK2 (catalytic domain only [amino acids 970-2527], GST-tagged) (Homo sapiens (Human), UniProt Q5S007). The experiment in a line: LRRK2 Enzymatic Assay. Type of experiment: biochemical. To be noted: LRRKtide substrate, [32P]-ATP. Summed up: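 Radiometric P81 filter-binding read-out of [32P]-ATP transfer to LRRKtide (20 μM) by 30 nM GST-LRRK2 970-2527, 2 h at room temperature after 20 min compound preincubation (10 μM–0.5 nM, 1% DMSO). IC50 derived from % remaining activity versus DMSO.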
As usually defined, the IC50 is the concentration at which inhibition is half-maximal. Take `COc1cnc(Nc2ccc(N3CCOCC3)cc2)nc1OCC1CCCCC1` [Example 152, 4-(cyclohexylmethoxy)-5-methoxy-N-(4-morpholinophenyl)pyrimidin-2-amine]: the IC50 was < 50 nM.
Turning to `Cc1nn(C(C)(C)C#N)cc1Nc1ncc(F)c(OCC2CCC(OC(C)C)CC2)n1` (racemic) [Example 280, 2-(4-((5-fluoro-4-((4-isopropoxycyclohexyl)methoxy)pyrimidin-2-yl)amino)-3-methyl-1H-pyrazol-1-yl)-2-methylpropanenitrile], the IC50 lay in the range of 50 to 200 nM.
For `Cc1nn(C(C)(C)C#N)cc1Nc1ncc(Cl)c(OCC2CCC(O)CC2)n1` (stereo not drawn) [Example 121, 2-(4-((5-chloro-4-((4-hydroxycyclohexyl)methoxy)pyrimidin-2-yl)amino)-3-methyl-1H-pyrazol-1-yl)-2-methylpropanenitrile], the IC50 was < 50 nM.
Consider `COc1nn(C(C)C)cc1Nc1ncc(F)c(OC[C@H]2CC[C@H](NC(C)=O)CC2)n1` [Example 207, N-((1R,4R)-4-(((5-fluoro-2-((1-isopropyl-3-methoxy-1H-pyrazol-4-yl)amino)pyrimidin-4-yl)oxy)methyl)cyclo-hexyl)acetamide], for which the IC50 was 50 to 200 nM.
Turning to `O=C(C(F)F)N1CCC(COc2nc(Nc3cccc(N4CCOCC4)c3)ncc2Cl)CC1` [Example 110, 1-(4-(((5-chloro-2-((3-morpholino-phenyl)amino)pyrimidin-4-yl)oxy)methyl)piperidin-1-yl)-2,2-difluoro-ethan-1-one], the IC50 was < 50 nM.
In the case of `CC(C)(O)[C@H]1CC[C@H](COc2nc(Nc3ccc(N4CCOCC4)cc3)ncc2F)CC1` [Example 144, 2-((1R,4R)-4-(((5-fluoro-2-((4-morpholinophenyl)amino)pyrimidin-4-yl)oxy)methyl)cyclohexyl)propan-2-ol] it was 50 to 200 nM; in that of `CC(=O)N[C@H]1CC[C@H](COc2ccnc(Nc3ccc(N4CCOCC4)cc3)n2)CC1` [Example 72, N-((1R,4R)-4-(((2-((4-morpholinophenyl)amino)pyrimidin-4-yl)oxy)methyl)cyclo-hexyl)acetamide], 50 to 200 nM.
On to `CC(=O)N[C@H]1C[C@H](COc2ccnc(Nc3ccc(N4CCOCC4)cc3)n2)C1` [Example 94, N-((1R,3R)-3-(((2-((4-morpholinophenyl)amino)pyrimidin-4-yl)oxy)methyl)cyclo-butyl)acetamide], for which the IC50 is > 400 nM.
For the molecule `COc1cc(C(=O)N2CCOCC2)c(F)cc1Nc1ncc(F)c(OC[C@H]2CC[C@H](O)CC2)n1` [Example 214, (2-fluoro-4-((5-fluoro-4-(((1R,4R)-4 hydroxycyclohexyl)methoxy)pyrimidin-2-yl)amino)-5-methoxyphenyl)(morpholino)methanone], the IC50 was 50 to 200 nM.
For `C[C@@H]1CN(c2ccc(Nc3ncc(F)c(OCC4CCNCC4F)n3)cc2)C[C@H](C)O1` (single isomer, unassigned) [Example 168], the IC50 lay in the range of 50 to 200 nM.
For the molecule `CCN1CCN(c2ccc(Nc3nccc(OCC4CCC(O)CC4)n3)nc2)CC1` (stereo not drawn) [Example 133, 4-(((2-((5-(4-ethylpiperazin-1-yl)pyridin-2-yl)amino)pyrimidin-4-yl)oxy)methyl)cyclohexan-1-ol], the IC50 was > 400 nM.
In the case of `Cc1nn(C2CC(C#N)C2)cc1Nc1ncc(Cl)c(OCC2CCC(O)CC2)n1` (stereo not drawn) [Example 122, 3-(4-((5-chloro-4-((4-hydroxycyclohexyl)methoxy)pyrimidin-2-yl)amino)-3-methyl-1H-pyrazol-1-yl)cyclobutane-1-carbonitrile] it was < 50 nM; in that of `OC1(C(F)(F)F)CCC(COc2nc(Nc3ccc(N4CCOCC4)cc3)ncc2F)CC1` (stereo not drawn) [Example 260, 4-(((5-fluoro-2-((4-morpholinophenyl)amino)pyrimidin-4-yl)oxy)methyl)-1-(trifluoromethyl)cyclohexan-1-ol], 50 to 200 nM.
In the case of `CC(C)(O)[C@H]1CC[C@H](COc2nc(Nc3ccc(N4CCOCC4)cc3)ncc2Cl)CC1` [Example 137, 2-((1R,4R)-4-(((5-chloro-2-((4-morpholinophenyl)amino)pyrimidin-4-yl)oxy)methyl)cyclohexyl)propan-2-ol] it was < 50 nM; in that of `CC(C)(O)[C@H]1CC[C@H](COc2nc(Nc3ccc(N4C5CCC4COC5)cc3)ncc2F)CC1` [Example 254, 2-((1S,4S)-4-(((2-((4-(3-oxa-8-azabicyclo[3.2.1]octan-8-yl)phenyl)amino)-5-fluoropyrimidin-4-yl)oxy)methyl)cyclohexyl)propan-2-ol], 50 to 200 nM.
With `C[C@@H]1CN(c2ccc(Nc3ncc(F)c(OCC4CCC(O)(C(F)(F)F)CC4)n3)cc2)C[C@H](C)O1` (stereo partly drawn) [Example 261, 4-(((2-((4-((2S,6R)-2,6-dimethylmorpholino)phenyl)amino)-5-fluoropyrimidin-4-yl)oxy)methyl)-1-(trifluoromethyl)cyclohexan-1-ol] the figure was 50 to 200 nM; with `Cc1nn(C(C)(C)C#N)cc1Nc1ncc(F)c(OCC2CCNCC2)n1` [Example 18, 2-(4-((5-fluoro-4-(piperidin-4-ylmethoxy)pyrimidin-2-yl)amino)-3-methyl-1H-pyrazol-1-yl)-2-methylpropanenitrile], 50 to 200 nM.
In the case of `CN[C@H]1CC[C@@H](COc2nc(Nc3cnn(C4CC(C#N)C4)c3C)ncc2Cl)C1` (stereo partly drawn) [Example 52, 3-(4-((5-chloro-4-(((1R,3S)-3-(methylamino)cyclo-pentyl)methoxy)py-rimidin-2-yl)amino)-5-methyl-1H-pyrazol-1-yl)cyclobutane-1-carbonitrile], the IC50 was < 50 nM.
With `CC(C)(C#N)n1cc(Nc2ncc(F)c(OC[C@H]3CC[C@H](O)CC3)n2)cn1` [Example 221] the figure was 50 to 200 nM; with `FC(F)(F)CN1CCC(COc2nc(Nc3ccc(N4CCOCC4)cc3)ncc2Cl)CC1` [Example 114, 5-chloro-N-(4-morpholino-phenyl)-4-((1-(2,2,2-trifluoroethyl)piperidin-4-yl)methoxy) pyrimidin-2-amine], > 400 nM; with `CN[C@H]1CC[C@H](COc2nc(Nc3cn(C(C)(C)C#N)nc3C)ncc2F)CC1` [Example 43, 2-(4-((5-fluoro-4-(((1R,4R)-4-(methylamino)cyclo-hexyl)methoxy)py-rimidin-2-yl)amino)-3-methyl-1H-pyrazol-1-yl)-2-methylpropanenitrile], < 50 nM.
As to `Cc1nn(C2CC(C#N)C2)cc1Nc1ncc(Cl)c(OCC2CCNCC2F)n1` (stereo not drawn) [Example 26, 3-(4-((5-chloro-4-((3-fluoropiperidin-4-yl)methoxy)pyrimidin-2-yl)amino)-3-methyl-1H-pyrazol-1-yl)cyclobutane-1-carbonitrile], the IC50 fell in the range of 50 to 200 nM.
With `Cc1nn(C(C)(C)C#N)cc1Nc1ncc(Cl)c(OCC2CC(C)OC(C)C2)n1` (stereo not drawn) [Example 149, 2-(4-((5-chloro-4-((2,6-dimethyltetrahydro-2H-pyran-4-yl)methoxy)pyrimidin-2-yl)amino)-3-methyl-1H-pyrazol-1-yl)-2-methylpropanenitrile] the figure was < 50 nM; with `Cc1c(Nc2ncc(F)c(OC[C@H]3CC[C@H](O)CC3)n2)cnn1C(F)F` [Example 235, (1R,4R)-4-(((2-((1-(difluoromethyl)-5-methyl-1H-pyrazol-4-yl)amino)-5-fluoropyrimidin-4-yl)oxy)methyl)cyclohexan-1-ol], 50 to 200 nM.
